Source: patent US20230096766A1, “AMINO ACID HAVING FUNCTIONAL GROUP CAPABLE OF INTERMOLECULAR HYDROGEN BONDING, PEPTIDE COMPOUND CONTAINING SAME AND METHOD FOR PRODUCTION THEREOF” (Chugai Seiyaku Kabushiki Kaisha, priority 2018, published 2023)
*1 amine or outer side, *2 acyl side, *3 side chain or, on linkers, in order; H or OH if unused. Where a SMILES comes first, the peptide text is derived from it. Bridges are numbered along the chain shown (N, C = ends). [ ]: non-standard residue; d: D form. The star is where a group is joined. NMeHph(3-OMe-4-CONHMe) = CNC(=O)c1ccc(CC[C@H](NC)C(=O)O)cc1OC; Glu(NHSO2Me) = CS(=O)(=O)NC(=O)CC[C@H](N)C(=O)O; X11 = CNC(=O)c1ccc(CCN(CC(=O)[*:2])[*:1])cc1OC; NMePhe(3-Cl) = CN[C@@H](Cc1cccc(Cl)c1)C(=O)O; Tyr(3-F) = N[C@@H](Cc1ccc(O)c(F)c1)C(=O)O; NMeF = CN[C@@H](Cc1ccccc1)C(=O)O; NMeGABA = CN(CCCC(=O)[*:2])[*:1]; NMeI = CC[C@H](C)[C@H](NC)C(=O)O; CH2CH(OH)CF3 = OC(C*)C(F)(F)F; NMeL = CN[C@@H](CC(C)C)C(=O)O; Propyl(2R-OH) = C[C@@H](O)C*; NMeV = CN[C@H](C(=O)O)C(C)C; NMeAbu = CC[C@H](NC)C(=O)O; NMeA = CN[C@@H](C)C(=O)O; Piperidide = C1CCN(*)CC1; NBuGly = CCCCNCC(=O)O; NPrGly = CCCNCC(=O)O; X3 = C[C@H](O)C*; Sar = CNCC(=O)O; tBu = CC(C)(C)*

Experiment: in vitro
Conditions: human

SMILES: CC[C@H](C)[C@@H]1NC(=O)[C@H](CC(C)C)N(C)C(=O)CCCN(C)C(=O)C[C@@H](C(=O)N2CCCCC2)NC(=O)[C@H](CC(C)C)N(C)C(=O)[C@H](CC(C)C)N(C)C(=O)[C@H]([C@@H](C)O)NC(=O)[C@H](CC(C)C)N(C)C(=O)[C@H](COC(C)(C)C)NC(=O)[C@H](Cc2ccccc2)N(C)C(=O)[C@H](CCc2ccc(C(=O)NC)c(OC)c2)N(C)C1=O [AP227] ([NMeGABA][NMeL]I[NMeHph(3-OMe-4-CONHMe)][NMeF]S(tBu)[NMeL]T[NMeL][NMeL]D-Piperidide; lactam N-11)
- Papp (Caco-2, Caco-2 (cm/sec)): 0.48 ×10⁻⁶ cm/s

SMILES: CCCN1CC(=O)N(C)[C@@H](CC(C)C)C(=O)N[C@H](C(=O)N2CCCCC2)CC(=O)N(C)[C@@H](C)C(=O)N[C@@H](COC[C@H](C)O)C(=O)N(C)[C@@H](CC(C)C)C(=O)N(C)[C@@H](Cc2cccc(Cl)c2)C(=O)N[C@@H](CC(C)C)C(=O)N(C)[C@@H](Cc2ccccc2)C(=O)N(C)[C@@H]([C@@H](C)CC)C(=O)N[C@@H]([C@@H](C)O)C1=O [AP65] ([NMeA]S(X3)[NMeL][NMePhe(3-Cl)]L[NMeF][NMeI]T[NPrGly][NMeL]D-Piperidide; lactam N-11)
- Papp (Caco-2, Caco-2 (cm/sec)): 1.2 ×10⁻⁶ cm/s

SMILES: CC(C)C[C@@H]1NC(=O)[C@H](C)N(C)C(=O)C[C@@H](C(=O)N2CCCCC2)NC(=O)[C@H](CC(C)C)N(C)C(=O)CN(C)C(=O)[C@H](Cc2ccc(O)c(F)c2)NC(=O)[C@H](CC(C)C)N(C)C(=O)[C@H](C)N(C)C(=O)[C@H](C)NC(=O)[C@H](Cc2ccccc2)N(C)C(=O)[C@H](CC(C)C)N(C)C1=O [pd120] ([NMeA]L[NMeL][NMeF]A[NMeA][NMeL][Tyr(3-F)][Sar][NMeL]D-Piperidide; lactam N-11)
- Papp (Caco-2, Caco-2 (cm/sec)): 0.23 ×10⁻⁶ cm/s

SMILES: CC(C)C[C@@H]1NC(=O)[C@H](Cc2ccccc2)N(C)C(=O)[C@@H](CC(C)C)NC(=O)C[C@@H](C(=O)N2CCCCC2)NC(=O)[C@H](CC(C)C)N(C)C(=O)[C@H](Cc2ccccc2)N(C)C(=O)[C@H](COC(C)(C)C)NC(=O)[C@H](CC(C)C)N(C)C(=O)CN(C)C(=O)[C@H](COC[C@@H](C)O)NC(=O)[C@H](CC(C)C)N(C)C1=O [AP81] ([dL][NMeF]L[NMeL]S(Propyl(2R-OH))[Sar][NMeL]S(tBu)[NMeF][NMeL]D-Piperidide; lactam N-11)
- Papp (Caco-2, Caco-2 (cm/sec)): 0.69 ×10⁻⁶ cm/s

SMILES: CCCCN1CC(=O)N(C)[C@@H](CC(C)C)C(=O)N[C@@H](CCC(=O)NS(C)(=O)=O)C(=O)N(C)[C@@H](Cc2cccc(Cl)c2)C(=O)N(C)[C@@H](C(C)C)C(=O)N[C@H](C(=O)N2CCCCC2)CC(=O)N[C@H](CC(C)C)C(=O)N(C)[C@@H](Cc2cccc(Cl)c2)C(=O)N[C@@H](CC(C)C)C(=O)N(C)[C@@H](CC)C(=O)N[C@@H]([C@@H](C)O)C1=O [pd61] ([dL][NMePhe(3-Cl)]L[NMeAbu]T[NBuGly][NMeL][Glu(NHSO2Me)][NMePhe(3-Cl)][NMeV]D-Piperidide; lactam N-11)
- Papp (Caco-2, Caco-2): < 0.094 ×10⁻⁶ cm/s

SMILES: CC[C@H](C)[C@H]1C(=O)N[C@@H](C(C)C)C(=O)N(C)CC(=O)N(C)[C@@H](CC(C)C)C(=O)N[C@H](C(=O)N2CCCCC2)CC(=O)N(C)[C@@H](C)C(=O)N[C@@H](COCC(O)C(F)(F)F)C(=O)N(C)[C@@H](CC(C)C)C(=O)N(C)[C@@H](Cc2ccccc2)C(=O)N[C@@H](CC(C)C)C(=O)N(C)[C@@H](Cc2ccccc2)C(=O)N1C (stereo partly drawn) [Compound C15] ([NMeA]S(CH2CH(OH)CF3)[NMeL][NMeF]L[NMeF][NMeI]V[Sar][NMeL]D-Piperidide; lactam N-11)
- Papp (Caco-2, Caco-2 (membrane permeability)): 0.83 ×10⁻⁶ cm/s

SMILES: CC[C@H]1C(=O)N[C@@H]([C@@H](C)O)C(=O)N(C)CC(=O)N(C)[C@@H](Cc2ccccc2)C(=O)N(C)[C@@H](CC(C)C)C(=O)N[C@@H](COC(C)(C)C)C(=O)N(C)[C@@H](CC(C)C)C(=O)N[C@H](C(=O)N2CCCCC2)CC(=O)N(CCc2ccc(C(=O)NC)c(OC)c2)CC(=O)N(C)[C@@H](CC(C)C)C(=O)N[C@@H](CC(C)C)C(=O)N1C [AP219] ([X11][NMeL]L[NMeAbu]T[Sar][NMeF][NMeL]S(tBu)[NMeL]D-Piperidide; lactam N-11)
- Papp (Caco-2, Caco-2 (cm/sec)): 1.3 ×10⁻⁶ cm/s
